Drawing on the Kinase Knowledgebase extract (Sharma et al. 2016), this text covers IC50 for 70 compounds.

The target of this assay is ROCK2 (human) (UniProt O75116). Put plainly: Inhibition of ROCK2 Kinase Activity.
ROCK2 (human), sequence (O75116 whole entry, looked up): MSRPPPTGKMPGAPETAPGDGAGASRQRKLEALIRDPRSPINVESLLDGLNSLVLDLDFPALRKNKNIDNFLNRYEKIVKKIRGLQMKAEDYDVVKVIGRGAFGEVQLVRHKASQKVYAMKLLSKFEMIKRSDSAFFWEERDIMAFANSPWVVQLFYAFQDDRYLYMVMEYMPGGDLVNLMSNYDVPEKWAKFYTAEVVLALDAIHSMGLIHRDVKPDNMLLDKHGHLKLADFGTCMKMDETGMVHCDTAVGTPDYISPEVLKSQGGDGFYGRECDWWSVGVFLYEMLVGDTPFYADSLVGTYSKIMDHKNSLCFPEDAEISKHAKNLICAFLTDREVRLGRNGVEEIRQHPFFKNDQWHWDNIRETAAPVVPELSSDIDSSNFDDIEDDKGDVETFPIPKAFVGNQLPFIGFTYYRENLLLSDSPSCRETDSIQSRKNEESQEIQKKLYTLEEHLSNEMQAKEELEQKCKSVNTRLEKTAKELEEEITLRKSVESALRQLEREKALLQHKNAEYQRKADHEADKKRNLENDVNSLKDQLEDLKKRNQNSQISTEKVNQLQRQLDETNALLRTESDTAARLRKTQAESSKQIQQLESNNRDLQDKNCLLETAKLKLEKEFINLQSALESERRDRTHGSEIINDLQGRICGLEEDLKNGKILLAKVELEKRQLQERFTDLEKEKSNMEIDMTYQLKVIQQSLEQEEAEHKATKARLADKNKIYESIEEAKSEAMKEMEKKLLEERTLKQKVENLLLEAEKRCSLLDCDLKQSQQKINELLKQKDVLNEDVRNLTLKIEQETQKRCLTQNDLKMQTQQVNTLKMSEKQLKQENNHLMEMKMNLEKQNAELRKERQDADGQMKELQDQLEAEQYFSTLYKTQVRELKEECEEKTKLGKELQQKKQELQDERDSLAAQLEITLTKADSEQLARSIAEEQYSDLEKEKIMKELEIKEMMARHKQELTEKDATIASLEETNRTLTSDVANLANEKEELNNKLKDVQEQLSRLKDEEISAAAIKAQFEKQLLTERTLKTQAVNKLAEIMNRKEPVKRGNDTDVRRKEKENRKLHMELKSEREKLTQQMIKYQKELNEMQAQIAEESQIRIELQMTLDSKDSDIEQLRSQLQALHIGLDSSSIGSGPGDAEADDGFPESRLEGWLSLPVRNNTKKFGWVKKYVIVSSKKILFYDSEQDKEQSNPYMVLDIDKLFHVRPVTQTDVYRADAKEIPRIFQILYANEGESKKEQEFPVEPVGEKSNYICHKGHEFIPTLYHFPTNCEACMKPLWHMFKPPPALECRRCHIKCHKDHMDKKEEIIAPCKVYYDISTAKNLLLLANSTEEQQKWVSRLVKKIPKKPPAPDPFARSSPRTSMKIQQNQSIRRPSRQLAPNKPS

As a reminder, the IC50 is the midpoint of a concentration-inhibition curve. Higher therefore signals a need for much substance. As for `CN1CCN(Cc2ccccc2C(=O)Nc2cc3cc[nH]c(=O)c3cc2Cl)CC1`, the IC50 was less than 1000 nM. Consider `O=C(O)C(C(=O)Nc1cc2cc[nH]c(=O)c2cc1Cl)c1ccccc1` (stereo not given), for which the IC50 is less than 1000 nM.

For `COc1cc2c(=O)[nH]ccc2cc1NC(=O)[C@@H](N)C1CCCCC1`, the IC50 is less than 1000 nM. Then `CC(=O)OC(C(=O)Nc1cc2cc[nH]c(=O)c2cc1Cl)c1ccccc1` (stereo not given), with less than 1000 nM; and `O=C(Nc1ccc2c(=O)[nH]cnc2c1)C1CCCNC1` (stereo not given), with less than 1000 nM; and `O=C(Nc1cc2cc[nH]c(=O)c2cc1Cl)C(=O)c1ccccc1`, with less than 1000 nM. Then `CC(C(=O)Nc1cc2cc[nH]c(=O)c2cc1Cl)N1CCSCC1` (stereo not given), with less than 1000 nM.

Take `N[C@@H](CC1CCCCC1)C(=O)Nc1cc2cc[nH]c(=O)c2cc1Cl`: the IC50 was less than 1000 nM. The compound `CN1CCC(C(=O)Nc2ccc3c(=O)[nH]ccc3c2)CC1` displayed a half-inhibitory concentration (IC50) of less than 1000 nM.

Consider `CO[C@@H](C(=O)Nc1cc2cc[nH]c(=O)c2cc1Cl)c1ccccc1`, for which the IC50 was less than 1000 nM. Next, `O=C(Nc1ccc2c(=O)[nH]cnc2c1)C1(c2ccc(Cl)cc2)CCCC1`: less than 1000 nM; `O=C(Nc1cc2cc[nH]c(=O)c2cc1Cl)[C@@H]1CCCO1`: less than 1000 nM. Then `C[C@@H]1CNCC[C@@H]1C(=O)Nc1cc2cc[nH]c(=O)c2cc1Cl`, with less than 1000 nM; and `CN(C)C(C(=O)Nc1ccc2c(=O)[nH]ccc2c1)c1ccccc1` (stereo not given), with less than 1000 nM. The compound `N[C@@H](C(=O)Nc1ccc2c(=O)[nH]cnc2c1)c1ccccc1` had a half-maximal inhibitory concentration (IC50) of less than 1000 nM. Then `O=C(Nc1cc2cc[nH]c(=O)c2cc1Cl)[C@H](O)c1ccccc1`, with less than 1000 nM.

Regarding `CN(CC(=O)Nc1ccc2c(=O)[nH]cnc2c1)C1CCCCC1`, the 50% inhibitory concentration (IC50) was less than 1000 nM. Then `O=C(Nc1cc2cc[nH]c(=O)c2cc1Cl)c1cccnc1Sc1ccccc1`, with less than 1000 nM; and `C[C@H]1CC(=O)CC[C@@H]1C(=O)Nc1cc2cc[nH]c(=O)c2cc1Cl`, with less than 1000 nM.

In turn, `O=C(CNC1CCCc2ccccc21)Nc1cc2cc[nH]c(=O)c2cc1Cl` (stereo not given) displayed an IC50 of less than 1000 nM. Then `O=C(Nc1ccc2c(=O)[nH]cnc2c1)C(NC1CC1)c1ccccc1` (stereo not given), with less than 1000 nM; and `COc1cc2c(=O)[nH]ccc2cc1NC(=O)[C@@H](OC)c1ccccc1`, with less than 1000 nM. Then `O=C(Nc1cc2cc[nH]c(=O)c2cc1Cl)[C@H]1CNC[C@@H]1c1ccc(F)cc1`, with less than 1000 nM; and `O=C(Nc1cc2cc[nH]c(=O)c2cc1Cl)[C@@H](O)c1ccccc1`, with less than 1000 nM. Next, `O=C(Nc1cc2cc[nH]c(=O)c2cc1Cl)c1ccc(Br)cc1Cl`: less than 1000 nM; `N[C@@H](C(=O)Nc1ccc2c(=O)[nH]ccc2c1)c1ccccc1`: less than 1000 nM. Take `CC(C)(C(=O)Nc1cc2cc[nH]c(=O)c2cc1Cl)c1ccccc1`: the IC50 is less than 1000 nM. Regarding `N[C@H](Cc1ccccc1)C(=O)Nc1ccc2c(=O)[nH]cnc2c1`, the IC50 was less than 1000 nM. Next, `O=C(CNCc1ccccc1)Nc1ccc2c(=O)[nH]cnc2c1`: less than 1000 nM; `C[C@](O)(C(=O)Nc1cc2nc[nH]c(=O)c2cc1Cl)c1ccc(Cl)cc1`: less than 1000 nM. Next, `CC(C)[C@@H](O)C(=O)Nc1cc2cc[nH]c(=O)c2cc1Cl`: less than 1000 nM; `CCOCCCNC(C(=O)Nc1cc2cc[nH]c(=O)c2cc1Cl)c1ccccc1` (stereo not given): less than 1000 nM.

Turning to `O=C(Nc1cc2cc[nH]c(=O)c2cc1Cl)[C@@H](O)C1CCCCC1`, the half-inhibitory concentration (IC50) was less than 1000 nM. Next, `O=C(Nc1ccc2c(=O)[nH]ccc2c1Cl)[C@H]1CNC[C@@H]1c1ccccc1`: less than 1000 nM; `Cc1cc(C(=O)Nc2ccc3c(=O)[nH]cnc3c2)n(C)n1`: less than 1000 nM; `Cc1ccccc1C(=O)Nc1cc2cc[nH]c(=O)c2cc1Cl`: less than 1000 nM. Then `CC(C)C(C(=O)Nc1cc2cc[nH]c(=O)c2cc1Cl)c1ccc(Cl)cc1` (stereo not given), with less than 1000 nM; and `O=C(Nc1c(Cl)cc2c(=O)[nH]ccc2c1F)[C@H]1CNC[C@@H]1c1ccccc1`, with less than 1000 nM. Then `COc1cccc(CC(=O)Nc2ccc3c(=O)[nH]ccc3c2)c1`, with less than 1000 nM; and `O=C(Nc1ccc2c(=O)[nH]ccc2c1)C1CNCC1c1ccccc1` (stereo not given), with less than 1000 nM. Regarding `CS(=O)(=O)c1ccc(C(=O)Nc2cc3cc[nH]c(=O)c3cc2Cl)cc1`, the concentration for half-maximal inhibition (IC50) is less than 1000 nM. Then `O=C(Nc1cc2cc[nH]c(=O)c2cc1Cl)c1ccc2c(c1)CNCC2`, with less than 1000 nM; and `CC(C)(Oc1ccc(Cl)cc1)C(=O)Nc1ccc2c(=O)[nH]ccc2c1`, with less than 1000 nM; and `COc1cc2c(=O)[nH]ccc2cc1NC(=O)[C@H](N)C1CCCCC1`, with less than 1000 nM. Compound `N[C@@H](C(=O)Nc1ccc2c(=O)[nH]ccc2c1)c1ccc(Cl)cc1` gave a half-maximal inhibitory concentration (IC50) of less than 1000 nM. Then `O=C(Nc1cc2cc[nH]c(=O)c2cc1Br)[C@H]1CNC[C@@H]1c1ccccc1`, with less than 1000 nM; and `O=C(CN[C@]12C[C@H]3C[C@H](C[C@H](C3)C1)C2)Nc1cc2cc[nH]c(=O)c2cc1Cl`, with less than 1000 nM. Then `O=C(Nc1ccc2c(=O)[nH]ccc2c1)c1cccs1`, with less than 1000 nM. Next, `O=C(Nc1cc2cc[nH]c(=O)c2cc1Cl)[C@@H]1CCCNC1`: less than 1000 nM; `O=C(Nc1cc2cc[nH]c(=O)c2cc1Cl)[C@H]1[C@@H]2CNC[C@@H]21`: less than 1000 nM. For the compound `N[C@H](Cc1ccc2ccccc2c1)C(=O)Nc1cc2cc[nH]c(=O)c2cc1Cl`, the half-maximal inhibitory concentration (IC50) was less than 1000 nM. As to `CSCC(=O)Nc1cc2cc[nH]c(=O)c2cc1Cl`, the IC50 was less than 1000 nM. Then `O=C(CNCc1ccccn1)Nc1cc2cc[nH]c(=O)c2cc1Cl`, with less than 1000 nM; and `CN1CCN(CC(=O)Nc2cc3cc[nH]c(=O)c3cc2Cl)CC1`, with less than 1000 nM.

In turn, `C[C@H]1CNCC[C@@H]1C(=O)Nc1cc2cc[nH]c(=O)c2cc1Cl` registered an IC50 of less than 1000 nM. `O=C(Nc1cc2cc[nH]c(=O)c2cc1Cl)c1ccc([N+](=O)[O-])cc1Cl` came in with a half-inhibitory concentration (IC50) of less than 1000 nM.

With `O=C(Nc1cc2cc[nH]c(=O)c2cc1Cl)[C@H]1CCCO1`, the IC50 was less than 1000 nM.

The compound `O=C(Nc1ccc2c(=O)[nH]ccc2c1)[C@H]1CCCNC1` yielded a half-maximal inhibitory concentration (IC50) of less than 1000 nM. Next, `O=C(Nc1ccc2c(=O)[nH]ccc2c1)c1cc(Cl)sc1Cl`: less than 1000 nM; `O=c1[nH]ccc2cc(NC(=O)[C@H]3CC[C@H](C(=O)O)CC3)c(Cl)cc12`: less than 1000 nM; `CCN(CCN(C)C)C(C(=O)Nc1cc2cc[nH]c(=O)c2cc1Cl)c1ccccc1` (stereo not given): less than 1000 nM. On to `O=C(Nc1cc2cc[nH]c(=O)c2cc1Cl)C(O)c1ccccc1` (stereo not given), for which the IC50 is less than 1000 nM. Then `O=C(Nc1ccc2c(=O)[nH]cnc2c1)[C@H]1CCCN1`, with less than 1000 nM; and `O=C(Nc1cc2cc[nH]c(=O)c2cc1Cl)C1CCN(Cc2ccncc2)CC1`, with less than 1000 nM; and `Cc1onc(-c2ccccc2)c1C(=O)Nc1cc2cc[nH]c(=O)c2cc1Cl`, with less than 1000 nM.

`COc1cc2c(=O)[nH]ccc2cc1NC(=O)[C@H](OC)c1ccccc1`: the half-inhibitory concentration (IC50) was less than 1000 nM. With `NC(C(=O)Nc1ccc2c(=O)[nH]cnc2c1)c1ccccc1` (stereo not given), the half-maximal inhibitory concentration (IC50) was less than 1000 nM. Then `O=C(Nc1cc2cc[nH]c(=O)c2cc1Cl)c1ccc(Cl)cc1Cl`, with less than 1000 nM. Next, `CC(C)(C)CC(=O)Nc1cc2cc[nH]c(=O)c2cc1Cl`: less than 1000 nM; `O=C(Nc1cc2cc[nH]c(=O)c2cc1Cl)c1cccc(Cl)c1Cl`: less than 1000 nM.
